Five substances from US10688194B2, “Cell penetrating peptides for intracellular delivery of molecules” (AADIGEN, LLC, priority 2012, dated 2020) can be followed below.

Like-named read-outs stand apart in the source and are kept apart here. Ends that are not written are not given here. {Cy5} = cyanine 5 fluorescent label

Data set [1] concerns protein (GFP & Nanobody). Kind of data set: Fluorescence titration, VEPEP-3/cargo binding: protein. Particulars: cargo: protein (GFP & Nanobody). The method, then: (§1) Fluorescence experiments were performed on a PTI spectrofluorimeter at 25° C. in a NaCl 154 mM buffer. Intrinsic Trp-fluorescence of VEPEP-3 was excited at 290 nm and emission spectrum was recorded between 310 and 400 nm, with a spectral band-pass of 2 and 8 nm for excitation and emission, respectively. FITC-fluorescence of labelled-peptide was excited at 492 nm and emission recorded between 500 and 580 nm. For VEPEP-3/peptide interaction, 0.5 μM of FITC-labelled peptide was titrated by increasing concentrations of VEPEP-3. All measurements were corrected for the dilution and curve fitting were performed by using Grafit software (Erithacus).
(§2) VEPEP-3 peptide form stable complexes with peptides and proteins. The binding of cargos to VEPEP-3 was monitored by fluorescence spectroscopy using the […] intrinsic Trp groups of VEPEP-3 (3 to 5 Trp-residues) and extrinsic fluorescently labelled cargoes (using Cy3, Cy5 or FITC). Curve fitting reveal that VEPEP-3 strongly binds the different cargoes with dissociation constant in the nanomolar range (examples with VEPEP-3a, VEPEP-3C, and VEPEP-3g and three different cargoes are reported in FIGS. 1A-1C, all the data are reported in Table 1).

Data set [2] concerns Cyclic peptide (PC4). As to the kind of experiment: Fluorescence titration, VEPEP-3/cargo binding: cyclic peptide. Conditions: cargo: Cyclic peptide (PC4). The method, then:
as §1, §2

Data set [3] relates to PNA (15 mer-PNA). As to the kind of experiment: Fluorescence titration, VEPEP-3/cargo binding: PNA. Conditions: cargo: 15 mer-PNA. Here is the method:
as §1
(§3) VEPEP-3 peptides also form stable particles with small aromatic molecules including Daunomycin, Paclitaxel, doxorubicin, porphyrin and charged molecules including nucleotide, nucleoside and peptide-analog of nucleic acids or fluorescent dyes (FIGS. 1A-1C). The dissociation constant for small hydrophobic molecule ranges between 0.05 to 2 μM, depending on the nature of the dyes and of the peptides.

Data set [4] in a line: Fluorescence titration, VEPEP-3/cargo binding: small hydrophobic molecule. Conditions: cargo: Doxorubicine. The method, then:
as §1, §3

The test system of data set [5] is Hela, MCF7, HEK-2, HS-68, and U2OS cells. Kind of data set: Cell cycle progression, controls. The data set is classed as cell-based.
The subject of data set [6] is Peptide (C4 and C2). As to the kind of experiment: Fluorescence titration, VEPEP-3/cargo binding: peptide. Here is the method:
as §1, §2

Data set [7] relates to Hela. The data set is classed as cell-based. Here is the method:
(§4) Adherent HS68 fibroblasts, HeLa, PC3, MCF-7, SCK3-Her2, PBMC cell lines (from American Type Culture Collection (ATCC)) were cultured in Dulbecco's Modified Eagle's Medium supplemented with 2 mM glutamine, 1% antibiotics (streptomycin 10,000 μg/ml, penicillin, 10,000 IU/ml) and 10% (w/v) foetal calf serum (FCS), at 37° C. in a humidified atmosphere containing 5% CO2. Stock solutions of VEPEP-3/peptide particles were prepared by complexing 1 μM peptide with VEPEP-3 peptides at a molar ratio of 1/20 for 30 min at 37° C. Lower concentrations of VEPEP-3-carrier/peptide (from 500 nM to […]) were obtained by serial dilution of the stock complexes in PBS, in order to preserve the same VEPEP-3-carrier/peptide ratio. 150,000 cells seeded in a 35 mm dish the day prior transfection, were grown to 60% confluence and overlaid with 200 μl of preformed complexes, incubated for 3-5 min, then 400 μl of DMEM were added. After 30 min. incubation at 37° C., 1 ml of fresh DMEM containing 16% foetal calf serum (FCS) was added in order to reach a final FCS concentration of 10%, without removing the overlay of VEPEP-3/peptide complexes. Cells were returned to the incubator for 24 hrs. For cdk4 and CDK2 derived peptides cell proliferation was monitored after 24 and 48 hrs. For peptide-targeting integrase, HIV proliferation was analyzed on activated PBMC cells after 3 and 5 days. Data reported are an average of 3 or 4 distinct experiments.
(§5) A peptide C2 or C4 concentration of 200 nM was sufficient to block proliferation of Hela, MCF7, HEK-2, HS-68 and U2OS cells.

Data set [8] relates to MCF7. The data set is classed as cell-based. Here is the method: as §4, §5
Data set [9] relates to HEK-2. The data set is classed as cell-based. Here is the method:
as §4, §5

For data set [10], the system named is MDA_MB cells. The class given is cell-based.
In data set [11] the test system is Hela. The class given is cell-based. The method, then:
as §4, with “Data reported are an average of 3 or 4 distinct experiments.” left out
This is another data set of the same source.

The test system of data set [12] is Hela, MCF7, HEK-2, HS-68 and U2OS cells. As to the kind of experiment: Cell proliferation after VEPEP-3 mediated delivery of C2/C4, several lines. The class given is cell-based. Particulars: delivered by VEPEP-3. The method, then: as §4, with “Data reported are an average of 3 or 4 distinct experiments.” left out
For data set [13], the system named is Cyclin B1. As to the kind of experiment: VEPEP-3 mediated delivery of antisense PNA, Cyclin B1 protein level. The data set is classed as cell-based. Particulars: different cultured cells. An excerpt: VEPEP-3 peptides have been used for the delivery of nucleic acid analogues (PNA and morpholino) into different cell lines, including primary cell lines and challenging cell lines. […] We have applied VEPEP-3 strategy for the delivery of PNA antisense targeting Cyclin B1 as previously described (Morris et al, 2007).

As a reminder, the Kd is a measure of binding affinity in units of concentration. With X1KWFERWFREWPRKRR [VEPEP-3a], in data set [1], the “Binding, Protein” value is listed as “Yes” and binding was put at a Kd of 1 µM. For the same substance, the “Binding, Cyclic peptide” value in data set [2] was “yes”. Besides, in data set [3], the “Binding, PNA” value was “Yes” and binding was put at a Kd of 0.1 µM. Further, the “Binding, SHM” value in data set [4] is listed as “Yes”. Further, the dissociation constant Kd in data set [4] (read-out: Kd, SHM) was determined as 1 µM. For the same substance, the “effect on cell cycle progression” value in [5] (carrier alone (200 μM)) is given as “no effect”. Also, in data set [6], the “Binding, peptide” value was “yes” and the dissociation constant (Kd) fell in the range of 0.01 to 0.02 µM.
As usually defined, the IC50 is the concentration that gives 50% inhibition. On to KKQVRMAHLVLT [C4, KKQVRMAHLVLT], for which the IC50 in [7] was found to be 0.035 ± 0.012 µM; in [8], 0.058 ± 0.006 µM; in data set [9], 0.078 ± 0.01 µM; in data set [10] it was 0.046 ± 0.014 µM; in data set [11] it was 0.036 ± 0.021 µM. In addition, the “peptide concentration sufficient to block proliferation” value in data set [12] is listed as 200 nM.
Consider “TGC CAT CGG GCT TGG AGG-CY5 (antisense TGCCATCGGGCTTGGAGG; 3' {Cy5}, sugars by position and backbone not given here; further chemistry not fully specified) [PNA (Cyclin B1)]”, for which the “downregulation of Cyclin B1 protein level” value in [13] is reported as “higher than 70%”.
Take “VTLMEAKKQVLT (HELM PEPTIDE1{[ac].V.T.L.M.E.A.K.K.Q.V.L.T.[SCCN[*:1]]}$$$$V2.0; SMILES CSCC[C@H](NC(=O)[C@H](CC(C)C)NC(=O)[C@@H](NC(=O)[C@@H](NC(C)=O)C(C)C)[C@@H](C)O)C(=O)N[C@@H](CCC(=O)O)C(=O)N[C@@H](C)C(=O)N[C@@H](CCCCN)C(=O)N[C@@H](CCCCN)C(=O)N[C@@H](CCC(N)=O)C(=O)N[C@H](C(=O)N[C@@H](CC(C)C)C(=O)N[C@H](C(=O)NCCS)[C@@H](C)O)C(C)C) [scrambled C2, reference compound]”: the “effect on cell cycle progression” value in [5] (500 nM, complexed with VEPEP-3a at a 20/1 ratio) is “no effect”.
Consider KKQVLAMEHLVT [C2, KKQVLAMEHLVT], for which the IC50 was determined as 0.037 ± 0.015 µM in data set [7]; 0.067 ± 0.015 µM in data set [8]; 0.102 ± 0.024 µM in data set [9]; 0.046 ± 0.014 µM in data set [10]; 0.036 ± 0.021 µM in data set [11]. Also, the “peptide concentration sufficient to block proliferation” value in data set [12] is given as 200 nM.
